Assay results: ChEMBL document CHEMBL5321279 (J Med Chem, 2023)
Activity calls are given as the source filed them. The rule behind the calls is not given here.

Key:
SARS-CoV-2 [1] = assay: Antiviral activity against SARS-CoV-2 Delta (B.1.617.2) infected in human A549-hACE2-TMPRSS2 cells assessed as reduction in viral replication pre-incubated with compound followed by viral infection measured after 48 hrs by ELISA assay; assay type: functional, organism-based; details: Severe acute respiratory syndrome coronavirus 2, Delta (B.1.617.2)
SARS-CoV-2 [2] = assay: Antiviral activity against SARS-CoV-2 WA1 infected in human A549-hACE2-TMPRSS2 cells assessed as reduction in viral replication pre-incubated with compound followed by viral infection measured after 72 hrs by ELISA assay; assay type: functional, organism-based; details: Severe acute respiratory syndrome coronavirus 2, WA1, A549-hACE2-TMPRSS2
[3] = Cytotoxicity against human MT4 cells assessed as reduction in cell growth measured after 5 days by CellTiter-Glo assay; assay type: toxicity, cell-based; details: MT4 cells, time 5 day
SARS-CoV-2 [4] = assay: Antiviral activity against Nluc-fused SARS-CoV-2 infected in human A549-ACE2 cells assessed as reduction in cell viability incubated for 2 days by Nano-Glo reagent based analysis; assay type: functional, organism-based; details: Severe acute respiratory syndrome coronavirus 2, A549-ACE2, 48 h
[5] = Cytotoxicity against human A549-ACE2 cells assessed as reduction in cell growth measured after 48 hrs by CellTiter-Glo assay; assay type: toxicity, cell-based; details: for CC50 at 48 h: A549-ACE2 cells
SARS-CoV-2 [6] = assay: Antiviral activity against […]-fused SARS-CoV-2 infected in human NHBE-T cells assessed as reduction in cell viability incubated for 1 day by Nano-Glo reagent based analysis; assay type: functional, organism-based; details: Severe acute respiratory syndrome coronavirus 2, NHBE-T, 24 h
SARS-CoV-2 [7] = assay: Antiviral activity against SARS-CoV-2 Omicron BA.1 infected in human A549-hACE2-TMPRSS2 cells assessed as reduction in viral replication pre-incubated with compound followed by viral infection measured after 72 hrs by ELISA assay; assay type: functional, organism-based; details: Severe acute respiratory syndrome coronavirus 2, Omicron BA.1, A549-hACE2-TMPRSS2
SARS-CoV-2 [8] = assay: Antiviral activity against SARS-CoV-2 Omicron BA.2 infected in human A549-hACE2-TMPRSS2 cells assessed as reduction in viral replication pre-incubated with compound followed by viral infection measured after 72 hrs by ELISA assay; assay type: functional, organism-based; details: Severe acute respiratory syndrome coronavirus 2, Omicron BA.2, A549-hACE2-TMPRSS2
SARS-CoV-2 [9] = assay: Antiviral activity against SARS-CoV-2 Omicron BA.2.12.1 infected in human A549-hACE2-TMPRSS2 cells assessed as reduction in viral replication pre-incubated with compound followed by viral infection measured after 72 hrs by ELISA assay; assay type: functional, organism-based; details: Severe acute respiratory syndrome coronavirus 2, Omicron BA.2.12.1, A549-hACE2-TMPRSS2
SARS-CoV-2 [10] = assay: Antiviral activity against SARS-CoV-2 Omicron BA.4 infected in human A549-hACE2-TMPRSS2 cells assessed as reduction in viral replication pre-incubated with compound followed by viral infection measured after 72 hrs by ELISA assay; assay type: functional, organism-based; details: Severe acute respiratory syndrome coronavirus 2, Omicron BA.4, A549-hACE2-TMPRSS2
SARS-CoV-2 [11] = assay: Antiviral activity against SARS-CoV-2 Omicron BA.5 infected in human A549-hACE2-TMPRSS2 cells assessed as reduction in viral replication pre-incubated with compound followed by viral infection measured after 72 hrs by ELISA assay; assay type: functional, organism-based; details: Severe acute respiratory syndrome coronavirus 2, Omicron BA.5, A549-hACE2-TMPRSS2
SARS-CoV-2 [12] = assay: Antiviral activity against SARS-CoV-2 Omicron BA.2.75 infected in human A549-hACE2-TMPRSS2 cells assessed as reduction in viral replication pre-incubated with compound followed by viral infection measured after 72 hrs by ELISA assay; assay type: functional, organism-based; details: Severe acute respiratory syndrome coronavirus 2, Omicron BA.2.75, A549-hACE2-TMPRSS2
SARS-CoV-2 [13] = assay: Antiviral activity against SARS-CoV-2 Omicron BA.4.6 infected in human A549-hACE2-TMPRSS2 cells assessed as reduction in viral replication pre-incubated with compound followed by viral infection measured after 72 hrs by ELISA assay; assay type: functional, organism-based; details: Severe acute respiratory syndrome coronavirus 2, Omicron BA.4.6, A549-hACE2-TMPRSS2
SARS-CoV-2 [14] = assay: Antiviral activity against SARS-CoV-2 Omicron BF.5 infected in human A549-hACE2-TMPRSS2 cells assessed as reduction in viral replication pre-incubated with compound followed by viral infection measured after 72 hrs by ELISA assay; assay type: functional, organism-based; details: Severe acute respiratory syndrome coronavirus 2, Omicron BF.5, A549-hACE2-TMPRSS2
SARS-CoV-2 [15] = assay: Antiviral activity against SARS-CoV-2 Omicron XBB infected in human A549-hACE2-TMPRSS2 cells assessed as reduction in viral replication pre-incubated with compound followed by viral infection measured after 72 hrs by ELISA assay; assay type: functional, organism-based; details: Severe acute respiratory syndrome coronavirus 2, Omicron XBB
SARS-CoV-2 [16] = assay: Antiviral activity against SARS-CoV-2 Omicron BQ1.1 infected in human A549-hACE2-TMPRSS2 cells assessed as reduction in viral replication pre-incubated with compound followed by viral infection measured after 72 hrs by ELISA assay; assay type: functional, organism-based; details: Severe acute respiratory syndrome coronavirus 2, Omicron BQ1.1, A549-hACE2-TMPRSS2
SARS-CoV-2 [17] = assay: Antiviral activity against SARS-CoV-2 Omicron BA.4.6 infected in human A549-hACE2-TMPRSS2 cells assessed as fold reduction in viral replication pre-incubated with compound followed by viral infection measured after 72 hrs by ELISA assay relative to SARS-CoV-2 WA1; assay type: functional, Severe acute respiratory syndrome coronavirus 2
SARS-CoV-2 [18] = assay: Antiviral activity against SARS-CoV-2 Omicron BQ1.1 infected in human A549-hACE2-TMPRSS2 cells assessed as fold reduction in viral replication pre-incubated with compound followed by viral infection measured after 72 hrs by ELISA assay relative to SARS-CoV-2 WA1; assay type: functional, Severe acute respiratory syndrome coronavirus 2
[19] = Lipophilicity, logD of compound; assay type: physicochemical; details: octanol/water
[20] = Apparent permeability of the compound from apical to basolateral side in human Caco-2 cells incubated for 2 hrs by LC-MS/MS analysis; assay type: ADME, cell-based; details: Caco-2
[21] = Thermodynamic aqueous solubility at pH 7 measured at 24 hrs by UPLC analysis; assay type: physicochemical; details: aqueous solution, read-out: Therm_solubility
[22] = Drug metabolism in human NHBE-T cells assessed as fold increase in Nucleotide triphosphate metabolite formation at 10 uM measured after 48 hrs by LC-MS analysis; assay type: ADME, cell-based
[23] = molecular target: T1, Adenosine deaminase (Homo sapiens) (UniProt P00813); assay: Inhibition of human recombinant ADA1-mediated drug metabolism at 100 uM incubated for 58 mins by absorbance based analysis
T1 sequence (whole entry): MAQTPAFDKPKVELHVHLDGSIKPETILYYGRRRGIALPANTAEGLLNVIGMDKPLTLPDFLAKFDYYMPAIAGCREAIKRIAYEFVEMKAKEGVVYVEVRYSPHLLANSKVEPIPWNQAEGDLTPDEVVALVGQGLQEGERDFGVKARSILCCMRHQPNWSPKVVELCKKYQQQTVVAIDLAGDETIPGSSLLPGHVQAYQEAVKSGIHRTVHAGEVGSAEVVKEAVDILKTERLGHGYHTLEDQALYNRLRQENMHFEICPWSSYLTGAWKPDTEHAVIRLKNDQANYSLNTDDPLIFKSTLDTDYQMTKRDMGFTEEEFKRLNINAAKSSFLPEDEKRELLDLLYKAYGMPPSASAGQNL

| SMILES | EC50 (SARS-CoV-2 [1]) [nM] | EC50 (SARS-CoV-2 [2]) [nM] | CC50 at 120 h [3] [µM] | EC50 (SARS-CoV-2 [4]) [nM] | EC50 (SARS-CoV-2 [6]) [nM] | EC50 (SARS-CoV-2 [7]) [nM] | EC50 (SARS-CoV-2 [8]) [nM] | EC50 (SARS-CoV-2 [9]) [nM] | EC50 (SARS-CoV-2 [10]) [nM] | EC50 (SARS-CoV-2 [11]) [nM] | EC50 (SARS-CoV-2 [12]) [nM] | EC50 (SARS-CoV-2 [13]) [nM] | EC50 (SARS-CoV-2 [14]) [µM] | EC50 (SARS-CoV-2 [15]) [nM] | EC50 (SARS-CoV-2 [16]) [nM] | fold change (FC) (SARS-CoV-2 [17]) | fold change (FC) (SARS-CoV-2 [18]) | Papp A→B at 2 h [20] [×10⁻⁶ cm/s] | solubility thermodynamic at 24 h [21] [µg/mL] | CC50 at 48 h [5] [µM] | further results |
| --- | --- | --- | --- | --- | --- | --- | --- | --- | --- | --- | --- | --- | --- | --- | --- | --- | --- | --- | --- | --- | --- |
| CCC(CC)COC(=O)[C@H](C)N[P@](=O)(OC[C@H]1O[C@@](C#N)(c2ccc3c(N)ncnn23)[C@H](O)[C@@H]1O)Oc1ccccc1 | 70 | 80 | 1.7 | 60 | 40 | 40 | 20 | 30 | 20 | 110 | 30 | 90 | 0.13 | 90 | 90 | 0.64 | 1.12 |  |  |  | CC50 ([5]; a549-ace2, 48 h): 22.9 µM |
| N#C[C@@]1(c2ccc3c(N)ncnn23)O[C@H](CO)[C@@H](O)[C@H]1O [GS-441524] | 3260 | 4450 | 69 | 2490 | 3250 | 2660 | 1330 | 1790 | 1630 | 4800 | 2580 | 5400 | 7.78 | 6300 | 8770 |  | 1.33 | 0.1 | ≤ 70 | > 50 | logD [19]: < 0.3; Drug metabolism [22]: Metabolite_Detected; fold change (FC) [22]: > 3; inhibition [23]: Active |
| CC(C)C(=O)OC[C@H]1O[C@@](C#N)(c2ccc3c(N)ncnn23)[C@H](O)[C@@H]1O [OBELDESIVIR] | 740 | 1010 | > 50 | 1900 | 430 | 650 | 710 | 440 | 400 | 1300 | 690 | 2450 | 3.13 | 2030 | 2440 | 0.62 | 1.33 | 1 | ≥ 1000 | > 50 | logD ([19]; read-out: logD): < 0.9; Drug metabolism [22]: Metabolite_Detected; inhibition [23]: Active |
